Assay results published in PMC5632533, “Mechanisms of action and in vivo antibacterial efficacy assessment of five novel hybrid peptides derived from Indolicidin and Ranalexin against Streptococcus pneumoniae” (PeerJ, 2017).

System: ICR (CD-1) mice
Assay: In vivo toxicity in mice (SC, IN, IP routes)
Set-up: Aspartate aminotransferase, AST / Alanine transaminase, ALT / Alkaline phosphatase, ALP / Creatinine / Urea / Total bilirubin: unit not given here
Details: for Eosinophil / Erythrocytes, RBC / Granulocytes / Hematocrit, HCT / Hemoglobin Hgb / Lymphocytes / Mean corpuscular haemoglobin concentration, MCHC / Mean corpuscular haemoglobin, MCH / Mean corpuscular volume, MCV / Monocytes / White blood cells, WBC / platelet Counts, PLT / Alanine transaminase, ALT / Alkaline phosphatase, ALP / Aspartate aminotransferase, AST / Creatinine / Total bilirubin / Urea: 3 doses (1hr, 12hr, 24hr), RN7-IN9, RN7-IN6 10 mg/kg, day 7, mean±SD, 4 mice; for maximum IP dose at which no signs of stress or abnormal behavior were evident (non-toxic dose): doses at 1 h, 12 h, 24 h, no death up to seven days; for Alanine transaminase, ALT / Alkaline phosphatase, ALP / Aspartate aminotransferase, AST / Creatinine / Total bilirubin / Urea: serum
Protocol: In this study, 4-week old male, pathogen free ICR (CD-1) mice were purchased from InVivos (Lim Chu Kang, Singapore) and used to assess the in vivo toxicity and antibacterial efficacy of the novel peptides, as these animals are by far the most commonly used model for the study of pneumococcal disease ([Chiavolini, Pozzi & Ricci, 2008]). The mice were kept in ventilated polycarbonate cages (12 h light/dark cycle, 20 ± 2 °C and 55% relative humidity). All mice were familiarized for seven days before any experimental procedure and were given unlimited pellets and water ad libitum. All animal experimentations were conducted according to the guidelines approved by Faculty of Medicine Institutional Animal Care and Use Committee (FOM IACUC), University of Malaya (ethics Reference no. : 2013-07-15/MMBTR/SDS).
In order to evaluate the possible toxic effects correlated to peptides administered in mice, four hybrid peptides RN7-IN10, RN7-IN9, RN7-IN8 and RN7-IN6 were chosen for in vivo toxicity assessment, due to their promising in vitro antibacterial activity ([Jindal et al., 2015]). Mice were separated into four groups (each with four mice) and were injected with respective peptides at 1 h, 12 h, and 24 h (three-dose regimen) via IP, SC, and IN administration routes. The hybrid peptides were first administered at high doses (100 mg/kg for IP route, 100 mg/kg for SC routes and 20 mg/kg for IN route). Any abnormal behavior was recorded and survival of mice was noted as well. In case adverse effects such as high physical stress, severe lethargy, physical inactiveness, and/or death were detected, lower graded doses were given. All the administered mice were monitored for seven days or until death occurred. At day seven post administration, all animals were sacrificed and blood and organs were collected. Untreated mice were used as a control group.
Mice used to evaluate the in vivo toxicity and antibacterial activity of the hybrid peptides using the subcutaneous (SC) and intranasal (IN) administration routes, were anesthetized using a combination of a standard dose of xylazine (ilium xylazil-20, 10 mg/kg) and ketamine (Narketan®-10, 100 mg/kg) through intraperitoneal (IP) injection. After seven days of treatment, the in vivo toxicity and antibacterial efficacy experiments were ended and the surviving mice were anesthetized. Blood samples for Hematological and biochemical analysis were collected via cardiac puncture using a 25G syringe (BD bioscience, San Jose, CA, USA). Whole blood for heamatological analysis was collected in 500 µl dipotassium EDTA microtainer tubes (BD Bioscience, USA). About 500 µl of blood collected an eppedorff tube and centrifuged at 8000 rpm for 5 min and then the serum was transferred into a new 1.5 ml tube for biochemistry analysis. The mice were then euthanized by cervical dislocation, dissected and the following organs were collected for histopathology evaluation: lung, kidney, brain, liver and spleen.
For whole blood analysis, the parameters were number of red cells (RBC), number of white cells (WBC), lymphocytes, monocytes, eosinophil, granulocytes, haemoglobin (Hgb), mean corpuscular volume (MCV), hematocrit (HCT), platelet Counts (PLT), Mean corpuscular haemoglobin (MCH) and corpuscular haemoglobin concentration (MCHC). For biochemistry analysis, the parameters were alanine transaminase (ALT), creatinine, alkaline phosphatase (ALP), aspartate aminotransferase (AST), total bilirubin and urea.
The following organs were collected from all the dissected mice: lung, kidney, brain, spleen, and liver. All tissues were fixed in 10% (v/v) buffered formalin and processed for paraffin embedding. Hematoxylin–eosin (HE) was used to stain the histological sections at the histopathology laboratory, Veterinary Laboratory Service Unit, University Putra Malaysia (UPM).

[1] = IN, head doses: RN7-IN10, RN7-IN8 20 mg/kg
[2] = SC, head doses: RN7-IN10, RN7-IN8 20 mg/kg

In the case of “FLGGLIKWKWPWWPWRR-NH2 [RN7-IN10, hybrid peptide of ranalexin (residues 1-7) and indolicidin (residues 4-13)]”, the Eosinophil [1] was 2.7±0.97%, the “Erythrocytes, RBC” value [1] was 9.62±0.79 10^6/mm^3 and the Granulocytes [1] was 66.6±21.64%. The “Hematocrit, HCT” value [1] was 47.95±3.18%, the “Hemoglobin Hgb” value [1] was 15.47 ± 1.07 g/dL and the Lymphocytes [1] was 58.5±7.53%. For the same substance, the “Mean corpuscular haemoglobin concentration, MCHC” value [1] was 28.3 ± 8.15 g/dL, the “Mean corpuscular haemoglobin, MCH” value [1] was 20 ± 7.87 pg and the “Mean corpuscular volume, MCV” value [1] was 50.75±1.7 µm^3. The Monocytes [1] was 2.2±0.37%, the “White blood cells, WBC” value [1] was 5.2±1.44 10^3/mm^3 and the “platelet Counts, PLT” value [1] was 619.5±100.42 10^3/mm^3. The Eosinophil (IP, RN7-IN10, RN7-IN8 20 mg/kg) was 2.23±1.61%, the “Erythrocytes, RBC” value (IP, RN7-IN10, RN7-IN8 20 mg/kg) was 9.16±0.92 10^6/mm^3 and the Granulocytes (IP, RN7-IN10, RN7-IN8 20 mg/kg) was 46.27±16.41%. The “Hematocrit, HCT” value (IP, RN7-IN10, RN7-IN8 20 mg/kg) was 47.67±5.6%, the “Hemoglobin Hgb” value (IP, RN7-IN10, RN7-IN8 20 mg/kg) was 15.85 ± 1.27 g/dL and the Lymphocytes (IP, RN7-IN10, RN7-IN8 20 mg/kg) was 51.03±16.69%. For the same substance, the “Mean corpuscular haemoglobin concentration, MCHC” value (IP, RN7-IN10, RN7-IN8 20 mg/kg) was 33.85 ± 0.60 g/dL, the “Mean corpuscular haemoglobin, MCH” value (IP, RN7-IN10, RN7-IN8 20 mg/kg) was 17.6 ± 0.46 pg and the “Mean corpuscular volume, MCV” value (IP, RN7-IN10, RN7-IN8 20 mg/kg) was 50.75±2.06 µm^3. For the same substance, the Monocytes (IP, RN7-IN10, RN7-IN8 20 mg/kg) was 2.8±0.5%, the “White blood cells, WBC” value (IP, RN7-IN10, RN7-IN8 20 mg/kg) was 4.2±0.55 10^3/mm^3 and the “platelet Counts, PLT” value (IP, RN7-IN10, RN7-IN8 20 mg/kg) was 535±150.11 10^3/mm^3. The “maximum IP dose at which no signs of stress or abnormal behavior were evident (non-toxic dose)” value (IP) was 20 mg/kg, the Eosinophil [2] was 2.82±0.25% and the “Erythrocytes, RBC” value [2] was 8.04±1.18 10^6/mm^3. For the same substance, the “Hematocrit, HCT” value [2] was 41.5±3.7%, the “Hemoglobin Hgb” value [2] was 13.75 ± 1.77 g/dL and the Lymphocytes [2] was 52.2±3.3%. The “Mean corpuscular haemoglobin concentration, MCHC” value [2] was 34.45 ± 1.35 g/dL, the “Mean corpuscular haemoglobin, MCH” value [2] was 17.08 ± 0.4 pg and the “Mean corpuscular volume, MCV” value [2] was 50±2.16 µm^3. For the same substance, the Monocytes [2] was 2.2±0.28%, the “White blood cells, WBC” value [2] was 3.8±0.2 10^3/mm^3 and the “platelet Counts, PLT” value [2] was 568.75±81.73 10^3/mm^3. For the same substance, the “Alanine transaminase, ALT” value [1] was 66.9±17.02, the “Alkaline phosphatase, ALP” value [1] was 133.3±10.1 and the “Aspartate aminotransferase, AST” value [1] was 172±8.78. It also gave a Creatinine [1] of 40.94±0.83, a Total bilirubin [1] of 2.15±0.14 and a Urea [1] of 9.3±1.68. The “Alanine transaminase, ALT” value (IP, RN7-IN10, RN7-IN8 20 mg/kg) was 52.76±12.22, the “Alkaline phosphatase, ALP” value (IP, RN7-IN10, RN7-IN8 20 mg/kg) was 124.33±10.6 and the “Aspartate aminotransferase, AST” value (IP, RN7-IN10, RN7-IN8 20 mg/kg) was 181.66±38.27. It also gave a Creatinine (IP, RN7-IN10, RN7-IN8 20 mg/kg) of 38.1±6.97, a Total bilirubin (IP, RN7-IN10, RN7-IN8 20 mg/kg) of 1.82±0.03 and a Urea (IP, RN7-IN10, RN7-IN8 20 mg/kg) of 9.6±2.11. The “Alanine transaminase, ALT” value [2] was 51.25±11.9, the “Aspartate aminotransferase, AST” value [2] was 175±25.41 and the Creatinine [2] was 37.8±3.43. It also gave a Total bilirubin [2] of 2.1±0.35 and a Urea [2] of 9.2±0.8.

In the case of “FLGGLIKWPWWPWRR-NH2 [RN7-IN8, hybrid peptide of ranalexin (residues 1-7) and indolicidin (residues 6-13)]”, the Eosinophil [1] was 4.3±3.6%, the “Erythrocytes, RBC” value [1] was 8.95±0.53 10^6/mm^3 and the Granulocytes [1] was 52.9±9.54%. The “Hematocrit, HCT” value [1] was 44.8±2.9%, the “Hemoglobin Hgb” value [1] was 14.42 ± 0.76 g/dL and the Lymphocytes [1] was 45.6±14.31%. For the same substance, the “Mean corpuscular haemoglobin concentration, MCHC” value [1] was 32.22 ± 0.4 g/dL, the “Mean corpuscular haemoglobin, MCH” value [1] was 16.12 ± 0.33 pg and the “Mean corpuscular volume, MCV” value [1] was 50.25±1.25 µm^3. For the same substance, the Monocytes [1] was 3.22±0.68%, the “White blood cells, WBC” value [1] was 3.95±0.54 10^3/mm^3 and the “platelet Counts, PLT” value [1] was 612±130.37 10^3/mm^3. For the same substance, the Eosinophil (IP, RN7-IN10, RN7-IN8 20 mg/kg) was 2.34±0.63%, the “Erythrocytes, RBC” value (IP, RN7-IN10, RN7-IN8 20 mg/kg) was 8.14±0.34 10^6/mm^3 and the Granulocytes (IP, RN7-IN10, RN7-IN8 20 mg/kg) was 53.38±12.35%. For the same substance, the “Hematocrit, HCT” value (IP, RN7-IN10, RN7-IN8 20 mg/kg) was 42.73±1.66%, the “Hemoglobin Hgb” value (IP, RN7-IN10, RN7-IN8 20 mg/kg) was 14.55 ± 0.17 g/dL and the Lymphocytes (IP, RN7-IN10, RN7-IN8 20 mg/kg) was 53.7±8.22%. For the same substance, the “Mean corpuscular haemoglobin concentration, MCHC” value (IP, RN7-IN10, RN7-IN8 20 mg/kg) was 34.17 ± 1.13 g/dL, the “Mean corpuscular haemoglobin, MCH” value (IP, RN7-IN10, RN7-IN8 20 mg/kg) was 17.92 ± 0.56 pg and the “Mean corpuscular volume, MCV” value (IP, RN7-IN10, RN7-IN8 20 mg/kg) was 52.75±0.95 µm^3. For the same substance, the Monocytes (IP, RN7-IN10, RN7-IN8 20 mg/kg) was 2.77±0.88%, the “White blood cells, WBC” value (IP, RN7-IN10, RN7-IN8 20 mg/kg) was 4.18±0.36 10^3/mm^3 and the “platelet Counts, PLT” value (IP, RN7-IN10, RN7-IN8 20 mg/kg) was 472.5±100.52 10^3/mm^3. For the same substance, the “maximum IP dose at which no signs of stress or abnormal behavior were evident (non-toxic dose)” value (IP) was 20 mg/kg, the Eosinophil [2] was 2.42±0.61% and the “Erythrocytes, RBC” value [2] was 9.17±0.83 10^6/mm^3. For the same substance, the Granulocytes [2] was 58.62±9.82%, the “Hematocrit, HCT” value [2] was 46.15±3.69% and the “Hemoglobin Hgb” value [2] was 15.82 ± 1.11 g/dL. The Lymphocytes [2] was 43.85±6.28%, the “Mean corpuscular haemoglobin concentration, MCHC” value [2] was 34.38 ± 0.52 g/dL and the “Mean corpuscular haemoglobin, MCH” value [2] was 17.32 ± 0.49 pg. For the same substance, the “Mean corpuscular volume, MCV” value [2] was 50.25±0.95 µm^3, the Monocytes [2] was 1.92±0.15% and the “White blood cells, WBC” value [2] was 3.47±0.48 10^3/mm^3. For the same substance, the “platelet Counts, PLT” value [2] was 445.75±47.21 10^3/mm^3, the “Alanine transaminase, ALT” value [1] was 44.5±18.9 and the “Alkaline phosphatase, ALP” value [1] was 128.5±21.7. For the same substance, the “Aspartate aminotransferase, AST” value [1] was 176.3±31.91, the Creatinine [1] was 40.56±1.74 and the Total bilirubin [1] was 2.21±0.18. For the same substance, the Urea [1] was 8.89±1.30, the “Alanine transaminase, ALT” value (IP, RN7-IN10, RN7-IN8 20 mg/kg) was 62.1±23.84 and the “Alkaline phosphatase, ALP” value (IP, RN7-IN10, RN7-IN8 20 mg/kg) was 115.4±34.9. For the same substance, the “Aspartate aminotransferase, AST” value (IP, RN7-IN10, RN7-IN8 20 mg/kg) was 148.9±21.51, the Creatinine (IP, RN7-IN10, RN7-IN8 20 mg/kg) was 39.2±3.81 and the Total bilirubin (IP, RN7-IN10, RN7-IN8 20 mg/kg) was 1.98±0.11. The Urea (IP, RN7-IN10, RN7-IN8 20 mg/kg) was 10.34±2.36, the “Alanine transaminase, ALT” value [2] was 50±5.49 and the “Alkaline phosphatase, ALP” value [2] was 134±8.24. The “Aspartate aminotransferase, AST” value [2] was 170.75±14.52, the Creatinine [2] was 43.4±0.8 and the Total bilirubin [2] was 1.84±0.12. The Urea [2] was 9.61±3.02.
